These results are taken from patent publication US7087373B2, “Methods for determining plasma free drug concentration by direct measurement of binding affinity of protease inhibitors to plasma proteins” (priority 2001, dated 2006).

Where two headings read alike, the source gives them in different places.

In data set [1] the test system is AAG (human α1-acid glycoprotein). Description: Isothermal titration calorimetry (ITC) of PI binding to AAG. The conditions noted are these: for Ka to AAG: ITC, Table 2; for Ka: binding to AAG, 37° C., 20 mM phosphate buffer, pH 7.4, average of duplicate experiments; for binding to AAG (titration profile): 80 μM PI into 12 μM, 1.45 mL of AAG. The method, then: Briefly, the isothermal titration calorimetry (ITC) measurements are designed to obtain primarily the enthalpy of each complex formation and their stoichiometries. The heats of each reaction are determined by integration of the peaks observed. After the contribution from the heat of dilution of each injection is subtracted, the heat is plotted against the molar ratio of PIs to AAG. The binding constant (Ka), enthalpy of binding (ΔH^0), and stoichiometry (N) of the formation of complex are determined by fitting the binding isotherm against the binding equation using an independent binding model. Data analysis may be carried out with, for example, MicroCal ORIGN software, usually provided with the instrument.
Binding experiments were run using Isothermal Titration Calorimetry (ITC) to measure bound and unbound protease inhibitors.
Sample preparation: Solutions of AAG and its variants for ITC experiments were made up in 20 mM […] buffer, pH 7.4. All compounds were prepared as stock solution of 20 mM or 25 mM in DMSO and thereafter diluted to desired concentration in the same buffer. For all ITC experiments, the percentage of DMSO is below 1%.
ITC Experiments: The isothermal titration measurements of the binding of various PIs to AAG can be typically carried out at 37° C. using a VP-ITC titration calorimeter (MicroCal, Northampton, Mass.). The instrument was electrically calibrated by means of a standard electric pulse as recommended by the manufacturer. […] A 300 μL syringe was used for the titrant, mixing was effected by stirring this syringe at 300 rpm during equilibration and experiment. Typically after a preliminary 2 μL injection, 25 injections of 10 μL each were performed with a 250s interval between injections in a single titration. The reference cell of the calorimeter filled with water, acts as a thermal reference to the sample cell. […] All solutions were degassed before titrations to reduce the noise. The buffer contained 20 mM sodium phosphate, pH 7.4.
The area of each peak was integrated and corrected for the PI heat of dilution, which was estimated by a separate experiment by injecting the PI into the buffer. By fitting the titration curve with a nonlinear least-squares method, the enthalpy change ΔH^0, and the binding constant Ka of PI binding to AAG can be estimated with the assumption of an independent binding site model.
The values provided are the average of duplicate experiments. […] The ΔS^0 function was calculated from the standard thermodynamic relation ΔG^0=ΔH^0−TΔS^0.

The test system of data set [2] is HIV. The data set can be described thus: Antiviral assay in the absence of AAG (Table 2). The note with it: Human immunodeficiency virus 1. It is filed as cell-based. An excerpt:
In table below, a data table with the binding affinity of 3 PI's to AAG (Ka), their free drug concentrations, calculated IC50s, and calculated efficacy were extracted from the ITC results and compared to IC50s from an antiviral assay in the absence of AAG.

The next data set relates to AAG. Description: Calculation of IC50 in presence of AAG, free drug concentration and efficacy from ITC Ka. Set-up: species or system human. The note with it: for Free drug Concentration: calculated from ITC results; for IC50: read-out: Predicted IC50 @ 1 mg/mL AAG, calculated from Ka and IC50 without AAG. The source says: The quantification of the concentration of protease inhibitor in free form maybe performed by direct measurement of binding affinity Kd using isothermal titration calorimetry; and calculating the concentration of protease inhibitor in free form using the formula:
[formula] where Pt and Lt, are total protein and drug concentrations, and Kd is the equilibrium dissociation constant obtained in step (iii).
[formula] where PL is the protein-bound concentration of PIs, L0 and P0 are the total concentration of PIs and plasma protein, Kα and n are the binding constants and number of binding sites, respectively.
The quantification of the antiviral activity or EC50 value of a protease inhibitor in the presence of at least one plasma protein may be performed by direct measurement of binding affinity Ka using isothermal titration calorimetry; and calculating the antiviral activity or EC50 value of the protease inhibitor using the formula: […]
The quantification of the in vivo efficacy of a protease inhibitor in human plasma may be performed by direct measurement of binding affinity Ka using isothermal titration calorimetry; calculating the concentration of protease inhibitor in free form using the formulas described above; and calculating the in vivo efficacy of the protease inhibitor in human plasma using the formula: […]

Data set [3] deals with HIV. The data set can be described thus: Cell-based anti-HIV assay (tetrazolium-based, Pauwels et al.) in the absence of AAG and in the presence of 1 mg/mL AAG. The note with it: change in experimental EC50, absence of AAG vs presence of 1 mg/mL AAG. As to the method: The values provided are the average of duplicate experiments. […] The standard free energies (ΔG^0) were obtained from the equation ΔG^0=−RT1nKa, in which the Ka is the binding constant at 37° C. The ΔS^0 function was calculated from the standard thermodynamic relation ΔG^0=ΔH^0−TΔS^0. […] Methods, 1988, 20(4), 309–21.

In data set [4] the test system is HIV. The conditions noted are these: cited from earlier work.
Data set [5] concerns HIV. The note with it: in vivo, Fischl et al.; extensive protein binding; cited from earlier work.
[6] abbreviates: antiviral assay in the absence of AAG, read-out: IC50.

Consider `CC(C)CN(C[C@@H](O)[C@H](Cc1ccccc1)NC(=O)OC1CO[C@H]2OCC[C@@H]12)S(=O)(=O)c1ccc(N)cc1` (some centres unmarked) [Compound number 1], for which the “Ka to AAG” value in data set [1] came to 1.92E+06. Also, the IC50 in the data set on HIV [2] turned out to be 3 nM. Besides, in the data set on AAG, the “Free drug Concentration” value was 1300 nM and the IC50 was 74.6 nM.
`Cc1cccc(C)c1OCC(=O)N[C@@H](Cc1ccccc1)[C@@H](O)C[C@H](Cc1ccccc1)NC(=O)[C@H](C(C)C)N1CCCNC1=O` [LPV, lopinavir]: the Ka in data set [1] is reported as 5.77 ± 0.72 10^6M^−1. In addition, the “Fold Inc. EC50” value in the data set on HIV [3] came to 37.1.
The corresponding values for `CC(C)(C)NC(=O)[C@@H]1C[C@@H]2CCCC[C@@H]2CN1C[C@@H](O)[C@H](Cc1ccccc1)NC(=O)[C@H](CC(N)=O)NC(=O)c1ccc2ccccc2n1` [SQV, saquinavir] are 0.34 ± 0.12 10^6M^−1 and 5.6.
In the same order, the values of `CC(C)c1nc(CN(C)C(=O)N[C@H](C(=O)N[C@@H](Cc2ccccc2)C[C@H](O)[C@H](Cc2ccccc2)NC(=O)OCc2cncs2)C(C)C)cs1` [RTV, ritonavir] are 1.55 ± 0.49 10^6M^−1 and 18.9.
`CC(C)[C@H](NC(=O)N(C)Cc1ccccn1)C(=O)N[C@@H](Cc1ccccc1)[C@H](O)[C@H](O)[C@H](Cc1ccccc1)NC(=O)[C@@H](NC(=O)N(C)Cc1ccccn1)C(C)C` [A77003]: the “antiviral efficacy as the concentration of AAG was increased” value in the data set with HIV [4] (in vitro, Bilello et al.) is “decreased”.
With `Cc1c(O)cccc1C(=O)N[C@@H](CSc1ccccc1)[C@H](O)CN1C[C@H]2CCCC[C@H]2C[C@H]1C(=O)NC(C)(C)C` [NFV, nelfinavir], in data set [1], the Ka is given as 2.35 ± 0.42 10^6M^−1. In addition, the “Fold Inc. EC50” value in the data set with HIV [3] came out at 22.9.
In the case of `CC(C)CN(C[C@@H](O)[C@H](Cc1ccccc1)NC(=O)O[C@H]1CO[C@H]2OCC[C@H]21)S(=O)(=O)c1ccc2c(c1)OCO2` [Compound number 2], in data set [1], the “Ka to AAG” value is 2.19E+06. Besides, the IC50 with HIV [2] (setting [6]) is 0.8 nM. In addition, in the data set on AAG, the “Free drug Concentration” value was 1190 nM and the IC50 was 22.7 nM.
In the same order, the values of `COc1ccc(S(=O)(=O)N(CC(C)C)C[C@@H](O)[C@H](Cc2ccccc2)NC(=O)OC2CO[C@H]3OCC[C@@H]23)cc1` (some centres unmarked) [Compound number 3] are 1.24E+06, 0.5 nM, 1710 nM and 8.25 nM.
Take `CC(C)CN(C[C@@H](O)[C@H](Cc1ccccc1)NC(=O)O[C@H]1CCOC1)S(=O)(=O)c1ccc(N)cc1` [APV, amprenavir]: the “binding to AAG (titration profile)” value in data set [1] was “binds to AAG accompanied with an exothermic heat effect”.
In the case of `CC(C)(C)NC(=O)[C@@H]1CN(Cc2cccnc2)CCN1C[C@@H](O)C[C@@H](Cc1ccccc1)C(=O)N[C@H]1c2ccccc2C[C@H]1O` [IDV, indinavir], in data set [1], the “binding to AAG (titration profile)” value is given as “does not bind to AAG” and the Ka result is recorded as “No binding”. Besides, the “Fold Inc. EC50” value in the data set with HIV [3] turned out to be 1.0.
Consider `CC(C)CN(C[C@@H](O)[C@H](Cc1ccccc1)NC(=O)[C@H](CC(N)=O)NC(=O)c1ccc2ccccc2n1)C(=O)NC(C)(C)C` [SC-52151, telinavir], for which the Ka in data set [1] was 2.38 ± 0.60 10^6M^−1. The “Fold Inc. EC50” value in the data set on HIV [3] came to 29.2. For the same compound, the “antiretroviral activity in vitro” value with HIV [4] (Fischl et al.) is given as “potent”. Also, the clinical efficacy result in the data set with HIV [5] is recorded as “lack of clinical efficacy”.
